In patent publication US6737383B1, “Herbicidal oxadiazolidines” (priority 1999, dated 2004):

Key:
bedstraw = test: Test B pre/postemergence bedstraw; type: in vivo, Galium aparine; conditions: Preemergence
Source text: (§1) Seeds of bedstraw (Galium aparine), blackgrass (Alopecurus myosuroides), surinam grass (Brachiaria decumbens), cocklebur (Xanthium strumarium), corn (Zea mays), crabgrass (Digitaria sanguinalis), giant foxtail (Setaria faberii), morningglory (Ipomoea hederacea), pigweed (Amaranthus retroflexus), rape (Brassica napus), soybean (Glycine max), sugar beet (Beta vulgaris), velvetleaf (Abutilon theophrasti), wheat (Triticum aestivum), wild oat (Avena fatua) and purple nutsedge (Cyperus rotundus) tubers were planted and treated preemnergence with test chemicals formulated in a non-phytotoxic solvent mixture which included a surfactant.
(§2) At the same time, these crop and weed species were also treated with postemergence applications of test chemicals formulated in the same manner. Plants ranged in height from 2 to 18 cm (1- to 4-leaf stage) for postemergence treatments. Plant species in the flood test consisted of rice (Oryza sativa), smallflower flatsedge (Cyperus difformis), duck salad (Heteranthera limosa) and bamyardgrass (Echinochloa crus-galli) grown to the 2-leaf stage for testing. Treated plants and controls were maintained in a greenhouse for twelve to sixteen days, after which all species were compared to controls and visually evaluated. Plant response ratings, summarized in Table B, are based on a scale of 0 to 10 where 0 is no effect and 10 is complete control. A dash (−) response means no test result.

blackgrass = test: Test B pre/postemergence blackgrass; type: in vivo, Alopecurus myosuroides
Source text: as §1, §2

surinam grass = test: Test B pre/postemergence surinam grass; type: in vivo, Brachiaria decumbens
Source text: as §1, §2

cocklebur = test: Test B pre/postemergence cocklebur; type: in vivo, Xanthium strumarium
Source text: as §1, §2

corn = test: Test B pre/postemergence corn; type: in vivo, Zea mays
Source text: as §1, §2

crabgrass = test: Test B pre/postemergence crabgrass; type: in vivo, Digitaria sanguinalis
Source text: as §1, §2

giant foxtail = test: Test B pre/postemergence giant foxtail; type: in vivo, Setaria faberii
Source text: as §1, §2

morningglory = test: Test B pre/postemergence morningglory; type: in vivo, Ipomoea hederacea
Source text: as §1, §2

pigweed = test: Test B pre/postemergence pigweed; type: in vivo, Amaranthus retroflexus
Source text: as §1, §2

rape = test: Test B pre/postemergence rape; type: in vivo, Brassica napus
Source text: as §1, §2

soybean = test: Test B pre/postemergence soybean; type: in vivo, Glycine max
Source text: as §1, §2

sugar beet = test: Test B pre/postemergence sugar beet; type: in vivo, Beta vulgaris; conditions: for Plant response rating, Sugarbeets: Rate 250 g/ha
Source text: as §1, §2

velvetleaf = test: Test B pre/postemergence velvetleaf; type: in vivo, Abutilon theophrasti; conditions: for Plant response rating, Velvetleaf: Rate 250 g/ha
Source text: as §1, §2

wheat = test: Test B pre/postemergence wheat; type: in vivo, Triticum aestivum; conditions: for Plant response rating, Wheat: Rate 250 g/ha
Source text: as §1, §2

wild oat = test: Test B pre/postemergence wild oat; type: in vivo, Avena fatua; conditions: for Plant response rating, Wild oats: Rate 250 g/ha
Source text: as §1, §2

purple nutsedge = test: Test B pre/postemergence purple nutsedge; type: in vivo, Cyperus rotundus
Source text: as §1, §2

[1] = Postemergence, Rate 62 g/ha, scale 0 to 10, 0 is no effect, 10 is complete control
[2] = Postemergence, Rate 125 g/ha, scale of 0 to 10 where 0 is no effect and 10 is complete control
[3] = Postemergence, Rate 250 g/ha, scale 0 to 10, 0 no effect, 10 complete control
[4] = Preemergence, Rate 62 g/ha, scale 0 to 10 (0 no effect, 10 complete control)
[5] = Preemergence, Rate 125 g/ha, scale 0 to 10 (0 no effect, 10 complete control)
[6] = Preemergence, Rate 250 g/ha, scale of 0 to 10 where 0 is no effect and 10 is complete control
[7] = Preemergence, Rate 500 g/ha, scale 0 (no effect) to 10 (complete control)
[8] = Rate 500 g/ha, Postemergence, scale 0 to 10, 0 no effect, 10 complete control
[9] = Rate 250 g/ha, Postemergence, scale 0 to 10, 0 is no effect, 10 is complete control
[10] = Preemergence, Rate 125 g/ha, 0 is no effect, 10 is complete control
[11] = Preemergence, scale of 0 to 10 where 0 is no effect and 10 is complete control
[12] = Postemergence, scale 0 to 10, 0 is no effect, 10 is complete control

Compound: CCCn1c(=O)on(C(=O)N(c2ccccc2)C(C)C)c1=O [Compound 92]
- Bedstraw plant response rating (bedstraw; Rate 62 g/ha, scale 0 to 10 (0 no effect, 10 complete control)): 0
- Plant response rating, Bedstraw (bedstraw; Rate 125 g/ha, scale 0 to 10 (0 no effect, 10 complete control)): 0
- Plant response rating, Bedstraw (bedstraw; Rate 250 g/ha, scale of 0 to 10 where 0 is no effect and 10 is complete control): 0
- Bedstraw plant response rating (bedstraw; Rate 500 g/ha, scale 0 (no effect) to 10 (complete control)): 1
- Blackgrass plant response rating (blackgrass; [1]): 7
- Blackgrass plant response rating (blackgrass; [2]): 7
- Blackgrass plant response rating (blackgrass; [3]): 7
- Blackgrass plant response rating (blackgrass; [4]): 9
- Plant response rating, Blackgrass (blackgrass; [5]): 10
- Plant response rating, Blackgrass (blackgrass; [6]): 10
- Blackgrass plant response rating (blackgrass; [7]): 10
- Blackgrass plant response rating (blackgrass; [8]): 8
- B. signalgrass plant response rating (surinam grass; [1]): 3
- B. signalgrass plant response rating (surinam grass; [3]): 7
- B. signalgrass plant response rating (surinam grass; [4]): 10
- Plant response rating, B. signalgrass (surinam grass; [6]): 10
- B. signalgrass plant response rating (surinam grass; Rate 125 g/ha, Postemergence, scale 0 to 10, 0 no effect, 10 complete control): 5
- B. signalgrass plant response rating (surinam grass; Rate 500 g/ha, Postemergence, scale of 0 to 10 where 0 is no effect and 10 is complete control): 7
- Cocklebur plant response rating (cocklebur; [1]): 0
- Cocklebur plant response rating (cocklebur; [2]): 1
- Cocklebur plant response rating (cocklebur; [3]): 2
- Cocklebur plant response rating (cocklebur; [4]): 0
- Plant response rating, Cocklebur (cocklebur; [6]): 0
- Cocklebur plant response rating (cocklebur; [8]): 3
- Corn plant response rating (corn; [1]): 0
- Corn plant response rating (corn; [2]): 0
- Corn plant response rating (corn; [3]): 0
- Corn plant response rating (corn; [4]): 0
- Plant response rating, Corn (corn; [5]): 2
- Plant response rating, Corn (corn; [6]): 5
- Corn plant response rating (corn; [7]): 9
- Corn plant response rating (corn; [8]): 4
- Crabgrass plant response rating (crabgrass; [1]): 6
- Crabgrass plant response rating (crabgrass; [2]): 8
- Crabgrass plant response rating (crabgrass; [3]): 9
- Crabgrass plant response rating (crabgrass; [4]): 8
- Plant response rating, Crabgrass (crabgrass; [5]): 10
- Plant response rating, Crabgrass (crabgrass; [6]): 8
- Crabgrass plant response rating (crabgrass; [7]): 10
- Crabgrass plant response rating (crabgrass; [8]): 9
- Giant foxtail plant response rating (giant foxtail; [1]): 8
- Giant foxtail plant response rating (giant foxtail; [2]): 8
- Giant foxtail plant response rating (giant foxtail; [3]): 9
- Giant foxtail plant response rating (giant foxtail; [4]): 10
- Plant response rating, Giant foxtail (giant foxtail; [5]): 10
- Plant response rating, Giant foxtail (giant foxtail; [6]): 10
- Giant foxtail plant response rating (giant foxtail; [7]): 10
- Giant foxtail plant response rating (giant foxtail; [8]): 9
- Morningglory plant response rating (morningglory; [1]): 7
- Morningglory plant response rating (morningglory; [2]): 8
- Morningglory plant response rating (morningglory; [3]): 10
- Morningglory plant response rating (morningglory; [4]): 0
- Plant response rating, Morningglory (morningglory; [5]): 0
- Plant response rating, Morningglory (morningglory; [6]): 0
- Morningglory plant response rating (morningglory; [7]): 3
- Morningglory plant response rating (morningglory; [8]): 10
- Redroot pigweed plant response rating (pigweed; [1]): 2
- Redroot pigweed plant response rating (pigweed; [2]): 3
- Redroot pigweed plant response rating (pigweed; [4]): 2
- Plant response rating, Redroot pigweed (pigweed; [5]): 7
- Plant response rating, Redroot pigweed (pigweed; [6]): 9
- Redroot pigweed plant response rating (pigweed; [7]): 10
- Plant response rating, Redroot pigweed (pigweed; [9]): 4
- Redroot pigweed plant response rating (pigweed; [8]): 5
- Rape plant response rating (rape; [1]): 2
- Rape plant response rating (rape; [2]): 3
- Rape plant response rating (rape; [3]): 4
- Rape plant response rating (rape; [4]): 4
- Plant response rating, Rape (rape; [5]): 9
- Plant response rating, Rape (rape; [6]): 10
- Rape plant response rating (rape; [7]): 10
- Rape plant response rating (rape; [8]): 6
- Soybean plant response rating (soybean; [1]): 3
- Soybean plant response rating (soybean; [2]): 3
- Soybean plant response rating (soybean; [4]): 0
- Plant response rating, Soybean (soybean; [5]): 3
- Plant response rating, Soybean (soybean; [6]): 4
- Soybean plant response rating (soybean; [7]): 9
- Plant response rating, Soybean (soybean; [9]): 3
- Soybean plant response rating (soybean; [8]): 5
- Sugarbeets plant response rating (sugar beet; [1]): 1
- Sugarbeets plant response rating (sugar beet; [2]): 4
- Sugarbeets plant response rating (sugar beet; [4]): 2
- Sugarbeets plant response rating (0 to 10 scale) (sugar beet; [10]): 6
- Plant response rating, Sugarbeets (sugar beet; [11]): 8
- Sugarbeets plant response rating (sugar beet; [7]): 9
- Plant response rating, Sugarbeets (sugar beet; [12]): 6
- Sugarbeets plant response rating (sugar beet; [8]): 6
- Velvetleaf plant response rating (velvetleaf; [1]): 0
- Velvetleaf plant response rating (velvetleaf; [2]): 0
- Velvetleaf plant response rating (velvetleaf; [4]): 4
- Velvetleaf plant response rating (0 to 10 scale) (velvetleaf; [10]): 6
- Plant response rating, Velvetleaf (velvetleaf; [11]): 6
- Velvetleaf plant response rating (velvetleaf; [7]): 8
- Plant response rating, Velvetleaf (velvetleaf; [12]): 0
- Wheat plant response rating (wheat; [1]): 0
- Wheat plant response rating (wheat; [2]): 2
- Wheat plant response rating (wheat; [4]): 3
- Wheat plant response rating (0 to 10 scale) (wheat; [10]): 6
- Plant response rating, Wheat (wheat; [11]): 7
- Wheat plant response rating (wheat; [7]): 7
- Plant response rating, Wheat (wheat; [12]): 5
- Wheat plant response rating (wheat; [8]): 6
- Wild oats plant response rating (wild oat; [1]): 0
- Wild oats plant response rating (wild oat; [2]): 1
- Wild oats plant response rating (wild oat; [4]): 7
- Wild oats plant response rating (0 to 10 scale) (wild oat; [10]): 8
- Plant response rating, Wild oats (wild oat; [11]): 9
- Wild oats plant response rating (wild oat; [7]): 10
- Plant response rating, Wild oats (wild oat; [12]): 1
- Wild oats plant response rating (wild oat; [8]): 5
- Nutsedge plant response rating (purple nutsedge; [1]): 0
- Nutsedge plant response rating (purple nutsedge; [2]): 0
- Nutsedge plant response rating (purple nutsedge; [3]): 0
- Nutsedge plant response rating (purple nutsedge; [4]): 0
- Plant response rating, Nutsedge (purple nutsedge; [5]): 0
- Plant response rating, Nutsedge (purple nutsedge; [6]): 0
- Nutsedge plant response rating (purple nutsedge; [7]): 0
- Nutsedge plant response rating (purple nutsedge; [8]): 2
